Assay results as given in paper PMC5841303, “In silico screening for human norovirus antivirals reveals a novel non-nucleoside inhibitor of the viral polymerase” (Scientific Reports, 2018).
Structures can show the parent of a compound that is named as a salt. Where two headings read alike, the source gives them in different places.

Columns and labels:
[1] = system: norovirus RdRp; assay: Counter-screen gel-shift RdRp assay (primed elongation of PE44-NoV template); assay type: biochemical, human norovirus; settings: 10 µM
[2] = system: human norovirus; design: method as in PMID 27210811; settings: read-out: EC50 against human norovirus in the B-cell culture system; cited from earlier work
[3] = system: human norovirus replicon; design: method as in PMID 26392512; settings: cell culture; read-out: EC50 against the human norovirus replicon; cited from earlier work
[4] = system: human norovirus RdRp; settings: cited from earlier work
[5] = design: method as in PMID 24316032, PMID 24616282; settings: cited from earlier work

Q: For `Nc1nc2c(ncn2[C@@H]2O[C@H](COP(=O)(O)OP(=O)(O)OP(=O)(O)O)C[C@H]2O)c(=O)[nH]1` [3′dGTP, 3′-deoxyguanosine-5′-triphosphate], which “inhibition of transcription (gel-shift, positive control)” value [1] is on record?
A: The value was “complete inhibition”.

Q: Which results are given for `C[C@@]1(O)[C@H](O)[C@@H](CO)O[C@H]1n1ccc(N)nc1=O` [Compound 2CMC, 2′-C-methylcytidine]?
A: EC50 [2]: 300 nM; EC50 [3]: 8200 nM; IC50 ([4]; read-out: IC50 against human norovirus RdRp): 2500 nM

Q: Which results are given for `CC1=N/C(=N/Nc2cc(S(=O)(=O)O)c3cc([N+](=O)[O-])cc(S(=O)(=O)O)c3c2)C(COP(=O)(O)O)=C(C=O)C1=O` [PPNDS, pyridoxal-5′-phosphate-6-(2′-naphthylazo-6′-nitro-4′,8′-disulfonate) tetrasodium salt]?
A: IC50 ([4]; in vitro, read-out: IC50 against human norovirus RdRp activity): 450 nM; cell membrane permeability [5]: poor cell membrane permeability

Q: For `Cc1ccc(C(=O)Nc2ccc(S(=O)(=O)O)c3cc(S(=O)(=O)O)cc(S(=O)(=O)O)c23)cc1NC(=O)c1cccc(NC(=O)Nc2cccc(C(=O)Nc3cc(C(=O)Nc4ccc(S(=O)(=O)O)c5cc(S(=O)(=O)O)cc(S(=O)(=O)O)c45)ccc3C)c2)c1` [suramin], which IC50 ([4]; enzymatic assays, read-out: IC50 against human norovirus RdRp) is on record?
A: Its IC50 is 27 nM.

Q: And the cell membrane permeability [5]?
A: Its cell membrane permeability is “poor cell membrane permeability”.
